Measured values: patent US11141410B2 (MERCK SHARP & DOHME CORP., priority 2015, dated 2021)
Like-named read-outs stand apart in the source and are kept apart here.

Experiments:
MRSA COL (MB5393) [1] = assay: TarO Inhibitor/β-Lactam Synergy Assay (growth, OD600); assay type: cell-based, Staphylococcus aureus; details: for MITC95 TarO inhibitor + 4 μg/mL IPM; Bacteria: SA_MB5393: in combination with 4 μg/mL imipenem (IPM); for MITC95 TarO inhibitor + 8 μg/mL DCX; Bacteria: SA_MB5393: in combination with 8 μg/mL dicloxacillin (DCX)
Procedure: The TarO inhibitor/β-lactam synergy assay was performed to measure the re-sensitization of methicillin-resistant Staphylococci bacteria (MB5393: MRSA COL) to β-lactam antibiotics by TarO inhibitors. MRSA COL is a hospital-acquired penicillinase-negative clinically isolated strain commonly used in Staphylococcus aureus studies and is fully resistant to the antimicrobial bioactivity of β-lactam antibiotics, including but not limited to imipenem and dicloxacillin. […] MRSA COL is fully refractory to β-lactam antibiotic effect at the current clinical breakpoint concentrations and as such MRSA COL is fully viable at these concentrations.
The β-lactam antibiotic concentration was fixed at the clinical breakpoint (imipenem 4 μg/ml or dicloxacillin 8 μg/ml) and the TarO inhibitors were titrated by 2 fold starting from the highest concentration of 200 μM with final DMSO concentration of 2% in the assay. 5×10^5 colony forming unit of MRSA COL in cation-adjusted Mueller Hinton broth (CAMHB) was then mixed and the assay plate was incubated for 20 hours at 37° C. without shaking. After 20 hours, the optical density at 600 nm (OD600) was read for all wells to determine relative growth of MRSA COL.

MRSA COL (MB5393) [2] = assay: as above; assay type: cell-based; details: Staphylococcus aureus, read-out: MITC95 TarO inhibitor alone, Bacteria: SA_MB5393
[3] = TarO inhibitor alone, >200 μM = 95% growth inhibition not achieved, 20 hours at 37° C.

| SMILES | MITC95 TarO inhibitor + 4 μg/mL IPM; Bacteria: SA_MB5393 (MRSA COL (MB5393) [1]) [µM] | MITC95 TarO inhibitor + 8 μg/mL DCX; Bacteria: SA_MB5393 (MRSA COL (MB5393) [1]) [µM] | IC95 (MRSA COL (MB5393) [2]; [3]) [µM] | IC95 (MRSA COL (MB5393) [2]; 20 h) [µM] |
| --- | --- | --- | --- | --- |
| C[C@H]1[C@@H](c2cc(C(F)(F)F)cc(C(F)(F)F)c2)OC(=O)N1C(=O)NCc1nccc2ccoc12 [Example 17, (4S,5R)-5-[3,5-bis(trifluoromethyl)phenyl]-N-(furo[2,3-c]pyridin-7-ylmethyl)-4-methyl-2-oxo-1,3-oxazolidine-3-carboxamide] | 0.39 | 4.30 | > 200 | – |
| COc1cccc([C@H]2OC(=O)N(C(=O)CCc3cccc4ccccc34)[C@H]2C)n1 [Example 81, (4S,5S)-5-(6-methoxypyridin-2-yl)-4-methyl-3-(3-naphthalen-1-ylpropanoyl)-1,3-oxazolidin-2-one] | 0.75 | 100.00 | > 200 | – |
| C[C@H]1[C@@H](c2cc(F)cc(C(F)(F)F)c2)OC(=O)N1C(=O)NCc1cccc2c1C(=O)NC2 [Example 40] | 18.75 | 50 | > 200 | – |
| C[C@H]1[C@@H](c2cc(F)cc(C3CC3)c2)OC(=O)N1C(=O)NCc1cncc2ccccc12 [Example 26, (4S,5R)-5-(3-cyclopropyl-5-fluorophenyl)-N-(isoquinolin-4-ylmethyl)-4-methyl-2-oxo-1,3-oxazolidine-3-carboxamide] | 0.25 | 0.99 | > 200 | – |
| C[C@H]1[C@@H](c2cc(F)cc(C(F)(F)F)c2)OC(=O)N1C(=O)NCc1ccccc1Cl [Example 21, (4S,5R)-N-(2-chlorobenzyl)-5-[3-fluoro-5-(trifluoromethyl)phenyl]-4-methyl-2-oxo-1,3-oxazolidine-3-carboxamide] | 0.16 | 1.73 | > 200 | – |
| C[C@H]1[C@@H](c2cc(C(F)(F)F)cc(C(F)(F)F)c2)OC(=O)N1C(=O)NCc1cncc2cccnc12 [Example 4, (4S,5R)-5-[3,5-bis(trifluoromethyl)phenyl]-4-methyl-N-(1,6-naphthyridin-8-ylmethyl)-2-oxo-1,3-oxazolidine-3-carboxamide] | 0.13 | 0.39 | > 200 | – |
| COc1cc([C@H]2OC(=O)N(C(=O)NCc3cncc4cccnc34)C[C@H]2C)cc(C(F)(F)F)c1 [Example 94, (5R,6S)-6-[3-methoxy-5-(trifluoromethyl)phenyl]-5-methyl-N-(1,6-naphthyridin-8-ylmethyl)-2-oxo-1,3-oxazinane-3-carboxamide] | 3.52 | 44 | > 200 | – |
| CCOc1ccccc1CNC(=O)N1C(=O)O[C@H](c2cc(F)cc(C(F)(F)F)c2)[C@@H]1C [Example 13, (4S,5R)-N-(2-ethoxybenzyl)-5-[3-fluoro-5-(trifluoromethyl)phenyl]-4-methyl-2-oxo-1,3-oxazolidine-3-carboxamide] | 0.06 | 0.35 | > 200 | – |
| C[C@H]1[C@@H](c2cc(C(F)(F)F)cc(C(F)(F)F)c2)OC(=O)N1C(=O)Cc1cccc2ccccc12 [Example 71, (4S,5R)-5-[3,5-bis(trifluoromethyl)phenyl]-4-methyl-3-(naphthalen-1-ylacetyl)-1,3-oxazolidin-2-one] | 0.89 | – | > 200 | – |
| C[C@H]1[C@@H](c2cc(F)cc(C(F)(F)F)c2)OC(=O)N1C(=O)NCc1cnc2sccn12 [Example 47, (4S,5R)-5-[3-fluoro-5-(trifluoromethyl)phenyl]-N-(imidazo[2,1-b][1,3]thiazol-5-ylmethyl)-4-methyl-2-oxo-1,3-oxazolidine-3-carboxamide] | 62 | 50 | > 200 | – |
| Cc1cccc(OCC(=O)N2C(=O)O[C@H](c3cccc(C(F)(F)F)c3)[C@@H]2C)c1C [Example 90, (4S,5R)-3-(2-(2,3-dimethylphenoxy)acetyl)-4-methyl-5-(3-(trifluoromethyl)-phenyl)oxazolidin-2-one] | 0.39 | 12.50 | > 200 | – |
| C[C@H]1[C@@H](c2cc(F)cc(C(F)(F)F)c2)OC(=O)N1C(=O)NCc1cccc2cn[nH]c12 [Example 39, (4S,5R)-5-[3-fluoro-5-(trifluoromethyl)phenyl]-N-(1H-indazol-7-ylmethyl)-4-methyl-2-oxo-1,3-oxazolidine-3-carboxamide] | 0.78 | 25 | > 200 | – |
| C[C@H]1[C@@H](c2cc(F)cc(Br)c2)OC(=O)N1C(=O)NCc1cncc2ccccc12 [Example 25, (4S,5R)-5-(3-bromo-5-fluorophenyl)-N-(isoquinolin-4-ylmethyl)-4-methyl-2-oxo-1,3-oxazolidine-3-carboxamide] | 0.22 | 1.38 | > 200 | – |
| Cc1nn(C)c(C)c1CNC(=O)N1C(=O)O[C@H](c2cc(F)cc(C(F)(F)F)c2)[C@@H]1C [Example 29, (4S,5R)-5-[3-fluoro-5-(trifluoromethyl)phenyl]-4-methyl-2-oxo-N-[(1,3,5-trimethyl-1H-pyrazol-4-yl)methyl]-1,3-oxazolidine-3-carboxamide] | 0.78 | 5.21 | > 200 | – |
| O=C(NCc1cncc2ccccc12)N1C(=O)O[C@H](c2cc(C(F)(F)F)cc(C(F)(F)F)c2)[C@@H]1CO [Example 50, (4S,5R)-5-(3,5-bis(trifluoromethyl)phenyl)-4-(hydroxymethyl)-N-(isoquinolin-4-ylmethyl)-2-oxooxazolidine-3-carboxamide] | 0.22 | 0.64 | – | > 200 |
| C[C@H]1[C@@H](c2cc(C(F)(F)F)cc(C(F)(F)F)c2)OC(=O)N1C(=O)CCc1cccc2ccccc12 [Example 67, (4S,5R)-5-[3,5-bis(trifluoromethyl)phenyl]-4-methyl-3-(3-naphthalen-1-ylpropanoyl)-1,3-oxazolidin-2-one] | 0.01 | – | > 200 | – |
| C[C@@H]1NN(C(=O)NCc2cncc3ccccc23)C(=O)O[C@@H]1c1cc(F)cc(C(F)(F)F)c1 [Example 95] | 5.21 | 4.17 | > 200 | – |
| COc1cccnc1CNC(=O)N1C(=O)O[C@H](c2cc(C(F)(F)F)cc(C(F)(F)F)c2)[C@@H]1C [Example 38, (4S,5R)-5-[3,5-bis(trifluoromethyl)phenyl]-N-[(3-methoxypyridin-2-yl)methyl]-4-methyl-2-oxo-1,3-oxazolidine-3-carboxamide] | 1.56 | 25 | > 200 | – |
| C[C@H]1[C@@H](c2cc(F)cc(C(F)(F)F)c2)OC(=O)N1C(=O)NCc1cccc2cc[nH]c12 [Example 12, (4S,5R)-5-[3-fluoro-5-(trifluoromethyl)phenyl]-N-(1H-indol-7-ylmethyl)-4-methyl-2-oxo-1,3-oxazolidine-3-carboxamide] | 0.25 | 1.56 | > 200 | – |
| C[C@H]1[C@@H](c2cc(F)cc(C(F)(F)F)c2)OC(=O)N1C(=O)NCc1cccc2ncccc12 [Example 37, (4S,5R)-5-[3-fluoro-5-(trifluoromethyl)phenyl]-4-methyl-2-oxo-N-(quinolin-5-ylmethyl)-1,3-oxazolidine-3-carboxamide] | 0.98 | 2.73 | > 200 | – |
| C[C@H]1[C@@H](c2cccc(C(F)(F)F)c2)OC(=O)N1C(=O)NCc1cncc2cccnc12 [Example 15, (4S,5R)-4-methyl-N-(1,6-naphthyridin-8-ylmethyl)-2-oxo-5-[3-(trifluoromethyl)phenyl]-1,3-oxazolidine-3-carboxamide] | 0.98 | 4.69 | > 200 | – |
| Cc1cc(C)cc([C@H]2OC(=O)N(C(=O)CCc3cncc4ccccc34)[C@H]2C)c1 [Example 77, (4S,5R)-5-(3,5-dimethylphenyl)-3-(3-isoquinolin-4-ylpropanoyl)-4-methyl-1,3-oxazolidin-2-one] | 0.63 | 5.21 | > 200 | – |
| C[C@H]1[C@@H](c2cc(C(F)(F)F)cc(C(F)(F)F)c2)OC(=O)N1C(=O)NCc1cncc2ccccc12 [Example 1, (4S,5R)-5-(3,5-bis(trifluoromethyl)phenyl)-N-(isoquinolin-4-ylmethyl)-4-methyl-2-oxooxazolidine-3-carboxamide] | 0.03 | 0.39 | > 200 | – |
